Values after ≈ are worked out from the molar mass of the structure shown. Active and inactive are the calls of the source. No cut-off for these calls is given here. Bounds are passed on as bounds.

The source of these data is ChEMBL document CHEMBL3272195, “Synthesis and antimicrobial activity of certain 6H-1,2,4-oxadiazin-3(2H)-ones” (1977).

Test [1] concerns Escherichia coli. Put plainly: Antimicrobial activity against Escherichia coli after 24 hrs by broth dilution assay. The class given is functional. In general terms: Broth dilution looks for growth in wells or tubes with falling amounts of substance.
The test system of test [2] is Pseudomonas aeruginosa. Put plainly: Antimicrobial activity against Pseudomonas aeruginosa after 24 hrs by broth dilution assay. The class given is functional.
The next test deals with Staphylococcus aureus. In words: Antimicrobial activity against Staphylococcus aureus after 24 hrs by broth dilution assay. The class given is functional.
For test [3], the system named is Trichophyton mentagrophytes. Put plainly: Antimicrobial activity against Trichophyton mentagrophytes after 48 hrs by broth dilution assay. The class given is functional.
In the next test the test system is Candida albicans. In words: Antimicrobial activity against Candida albicans after 48 hrs by broth dilution assay. The class given is functional.
The test system of another test is Human alphaherpesvirus 1. In words: Antiviral activity against Herpes simplex virus type 1. The class given is functional, organism-based.
A further test has as its system Human respirovirus 3. In words: Antiviral activity against Parainfluenza virus 3. The class given is functional, organism-based.
A further test deals with Human rhinovirus A13. In words: Antiviral activity against Rhinovirus A13. The class given is functional.
Test [4] relates to Escherichia coli. Put plainly: Antimicrobial activity against Escherichia coli paper disc treated with 24 hrs urine sample from 100 mg/kg, po compound treated ICR mouse measured after 18 to 24 hrs by disc diffusion assay. The class given is functional, organism-based. On the set-up: dose 100 mg/kg. On the technique in general: Agar diffusion results depend on both activity and mobility in agar.

The subject of test [5] is Pseudomonas aeruginosa. In words: Antimicrobial activity against Pseudomonas aeruginosa paper disc treated with 24 hrs urine sample from 100 mg/kg, po compound treated ICR mouse measured after 18 to 24 hrs by disc diffusion assay. On the set-up: dose 100 mg/kg. The class given is functional, organism-based.

Take `O=C1CON(C(=O)OCc2ccccc2)C(=O)N1`: the minimal inhibitory concentration (MIC) with Escherichia coli [1] was 20 µM (≈ 5 µg/mL); against Pseudomonas aeruginosa [2] it was 20 µM (≈ 5 µg/mL); in the test with Staphylococcus aureus it was 80 µM (≈ 20 µg/mL); in test [3], over 400 µM; against Candida albicans, over 400 µM. For the same compound, the result in the test with Human alphaherpesvirus 1, in the test on Human respirovirus 3, with Human rhinovirus A13, in the test with Escherichia coli [4] and with Pseudomonas aeruginosa [5] was inactive.
In the case of `CN1OCC(=S)NC1=O`, the MIC was over 400 µM against Escherichia coli [1]; over 400 µM in the test with Pseudomonas aeruginosa [2]; over 400 µM with Staphylococcus aureus; 160 µM (≈ 23.4 µg/mL) in [3]; 400 µM (≈ 58.5 µg/mL) in the test on Candida albicans. Besides, the result in the test on Human alphaherpesvirus 1, in the test on Human respirovirus 3 and with Human rhinovirus A13 was inactive.
Consider `O=C1CONC(=O)N1`, for which the minimal inhibitory concentration (MIC) was 10 µM (≈ 1.16 µg/mL) against Escherichia coli [1]; 40 µM (≈ 4.64 µg/mL) with Pseudomonas aeruginosa [2]; 20 µM (≈ 2.32 µg/mL) in the test on Staphylococcus aureus; over 400 µM in test [3]; over 400 µM against Candida albicans. Besides, the result in the test with Human alphaherpesvirus 1, in the test on Human respirovirus 3, with Human rhinovirus A13, in the test with Escherichia coli [4] and in the test on Pseudomonas aeruginosa [5] was inactive.
In the case of `NC1=NC(=O)NOC1`, the MIC in the test on Escherichia coli [1] is 10 µM (≈ 1.15 µg/mL); in the test on Pseudomonas aeruginosa [2] it was 80 µM (≈ 9.21 µg/mL); in the test with Staphylococcus aureus, 320 µM (≈ 36.8 µg/mL); in [3] it was over 400 µM; against Candida albicans, over 400 µM. Also, the result with Human alphaherpesvirus 1, with Human respirovirus 3 and in the test with Human rhinovirus A13 was inactive. In addition, the outcome with Escherichia coli [4] and in the test with Pseudomonas aeruginosa [5] was Active.
With `O=C1NOCC(=S)N1`, the minimal inhibitory concentration (MIC) against Escherichia coli [1] is under 5 µM; with Pseudomonas aeruginosa [2] it was 20 µM (≈ 2.64 µg/mL); in the test with Staphylococcus aureus, 10 µM (≈ 1.32 µg/mL); in test [3], 320 µM (≈ 42.3 µg/mL); with Candida albicans it was 320 µM (≈ 42.3 µg/mL). For the same compound, the outcome in the test with Human alphaherpesvirus 1, in the test on Human respirovirus 3, with Human rhinovirus A13, in the test with Escherichia coli [4] and in the test on Pseudomonas aeruginosa [5] was inactive.
Regarding `O=C1N=C(NO)CON1`, the minimum inhibitory concentration (MIC) (against Escherichia coli [1]; against Pseudomonas aeruginosa [2]; against Staphylococcus aureus; in test [3]; against Candida albicans) was over 400 µM throughout. The result in the test with Human alphaherpesvirus 1, in the test on Human respirovirus 3 and in the test with Human rhinovirus A13 was inactive.
Regarding `NNC1=NC(=O)NOC1`, the MIC (with Escherichia coli [1]; against Pseudomonas aeruginosa [2]; in the test with Staphylococcus aureus; in [3]; against Candida albicans) was over 400 µM throughout. Besides, the outcome in the test on Human alphaherpesvirus 1, in the test on Human respirovirus 3 and with Human rhinovirus A13 was inactive.
For the compound `CNC1=NC(=O)NOC1`, the MIC was 320 µM (≈ 41.3 µg/mL) in the test with Escherichia coli [1]; over 400 µM against Pseudomonas aeruginosa [2]; 320 µM (≈ 41.3 µg/mL) with Staphylococcus aureus; 320 µM (≈ 41.3 µg/mL) in test [3]; over 400 µM in the test on Candida albicans. For the same compound, the result in the test on Human alphaherpesvirus 1, in the test with Human respirovirus 3 and with Human rhinovirus A13 was inactive.
As to `CN(C)C1=NC(=O)NOC1`, the MIC against Escherichia coli [1] was 160 µM (≈ 22.9 µg/mL); in the test with Pseudomonas aeruginosa [2], over 400 µM; in the test with Staphylococcus aureus it was 320 µM (≈ 45.8 µg/mL); in test [3], over 400 µM; with Candida albicans, over 400 µM. The outcome in the test on Human alphaherpesvirus 1, in the test on Human respirovirus 3 and with Human rhinovirus A13 was inactive.
Consider `O=C1N=C(NC(c2ccccc2)c2ccccc2)CON1`, for which the minimal inhibitory concentration (MIC) against Escherichia coli [1] was 320 µM (≈ 90 µg/mL); with Pseudomonas aeruginosa [2] it was 320 µM (≈ 90 µg/mL); in the test on Staphylococcus aureus it was 160 µM (≈ 45 µg/mL); in test [3], over 400 µM; against Candida albicans it was over 400 µM. For the same compound, the result with Human alphaherpesvirus 1, in the test on Human respirovirus 3 and with Human rhinovirus A13 was inactive.
With `O=C1NC(=S)CON1Cc1ccccc1`, the minimum inhibitory concentration (MIC) was over 400 µM against Escherichia coli [1]; over 400 µM against Pseudomonas aeruginosa [2]; over 400 µM against Staphylococcus aureus; 160 µM (≈ 35.6 µg/mL) in test [3]; 320 µM (≈ 71.1 µg/mL) against Candida albicans. Besides, the outcome in the test on Human alphaherpesvirus 1, with Human respirovirus 3 and in the test with Human rhinovirus A13 was inactive.
With `CCOC(=O)CONC(N)=O`, the MIC in the test with Escherichia coli [1] was 160 µM (≈ 25.9 µg/mL); in the test on Pseudomonas aeruginosa [2] it was 320 µM (≈ 51.9 µg/mL); in the test with Staphylococcus aureus, 80 µM (≈ 13 µg/mL); in [3], over 400 µM; against Candida albicans, over 400 µM.
Regarding `O=C1N=C(NCc2ccccc2)CON1`, the MIC with Escherichia coli [1] was 320 µM (≈ 65.7 µg/mL); against Pseudomonas aeruginosa [2] it was over 400 µM; in the test with Staphylococcus aureus, 400 µM (≈ 82.1 µg/mL); in test [3], over 400 µM; in the test on Candida albicans, over 400 µM. In addition, the result in the test on Human alphaherpesvirus 1, with Human respirovirus 3 and with Human rhinovirus A13 was inactive.

In general, MIC refers to the least concentration at which growth counts as inhibited. Low readings indicate a more susceptible organism, high ones a less susceptible organism.
